Laboratory results: patent publication US9446039B2, “Aminoheteroaryl compounds as MTH1 inhibitors” (CEMM—FORSCHUNGSZENTRUM FÜR MOLEKULARE MEDIZIN GMBH, priority 2012, dated 2016)

Tests used:
Assay type in all cases: binding
[1] = molecular target: T1, SW480 colon carcinoma cells lysate proteins (Homo sapiens, UniProt O60664); conditions: PreyGene PLIN3
T1 sequence (O60664 1-434): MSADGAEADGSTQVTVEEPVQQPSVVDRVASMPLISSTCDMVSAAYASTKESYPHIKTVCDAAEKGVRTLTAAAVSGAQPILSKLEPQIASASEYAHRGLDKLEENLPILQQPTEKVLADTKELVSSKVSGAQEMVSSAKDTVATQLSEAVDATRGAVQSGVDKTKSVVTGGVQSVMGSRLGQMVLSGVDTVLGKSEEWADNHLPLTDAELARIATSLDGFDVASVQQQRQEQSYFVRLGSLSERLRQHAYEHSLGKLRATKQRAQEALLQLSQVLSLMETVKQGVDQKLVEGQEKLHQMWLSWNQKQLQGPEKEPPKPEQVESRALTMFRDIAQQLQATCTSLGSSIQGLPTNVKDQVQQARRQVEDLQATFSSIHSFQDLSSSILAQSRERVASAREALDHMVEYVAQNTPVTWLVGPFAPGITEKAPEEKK

[2] = molecular target: T2, SW480 colon carcinoma cells lysate proteins (Homo sapiens, UniProt P02533); conditions: PreyGene KRT14
T2 sequence (P02533 1-472): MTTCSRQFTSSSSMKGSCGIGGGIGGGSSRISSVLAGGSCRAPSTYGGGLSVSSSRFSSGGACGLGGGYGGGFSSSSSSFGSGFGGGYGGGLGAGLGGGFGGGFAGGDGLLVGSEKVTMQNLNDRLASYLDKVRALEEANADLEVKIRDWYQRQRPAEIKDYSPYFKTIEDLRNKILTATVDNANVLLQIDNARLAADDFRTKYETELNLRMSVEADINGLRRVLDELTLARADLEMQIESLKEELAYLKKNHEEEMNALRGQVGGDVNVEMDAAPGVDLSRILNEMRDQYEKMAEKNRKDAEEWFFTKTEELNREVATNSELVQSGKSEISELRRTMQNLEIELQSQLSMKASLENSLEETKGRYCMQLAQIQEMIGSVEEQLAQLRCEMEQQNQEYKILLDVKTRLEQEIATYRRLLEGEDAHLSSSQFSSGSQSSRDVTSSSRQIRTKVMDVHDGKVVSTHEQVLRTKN

[3] = molecular target: SW480 colon carcinoma cells lysate proteins (Homo sapiens, UniProt P06744); conditions: PreyGene GPI
[4] = molecular target: SW480 colon carcinoma cells lysate proteins (Homo sapiens, UniProt P30040); conditions: PreyGene ERP29
[5] = molecular target: SW480 colon carcinoma cells lysate proteins (Homo sapiens, UniProt P49591); conditions: PreyGene SARS
Sequence of SW480 colon carcinoma cells lysate proteins (Homo sapiens, UniProt P49591) (P49591 whole entry, looked up): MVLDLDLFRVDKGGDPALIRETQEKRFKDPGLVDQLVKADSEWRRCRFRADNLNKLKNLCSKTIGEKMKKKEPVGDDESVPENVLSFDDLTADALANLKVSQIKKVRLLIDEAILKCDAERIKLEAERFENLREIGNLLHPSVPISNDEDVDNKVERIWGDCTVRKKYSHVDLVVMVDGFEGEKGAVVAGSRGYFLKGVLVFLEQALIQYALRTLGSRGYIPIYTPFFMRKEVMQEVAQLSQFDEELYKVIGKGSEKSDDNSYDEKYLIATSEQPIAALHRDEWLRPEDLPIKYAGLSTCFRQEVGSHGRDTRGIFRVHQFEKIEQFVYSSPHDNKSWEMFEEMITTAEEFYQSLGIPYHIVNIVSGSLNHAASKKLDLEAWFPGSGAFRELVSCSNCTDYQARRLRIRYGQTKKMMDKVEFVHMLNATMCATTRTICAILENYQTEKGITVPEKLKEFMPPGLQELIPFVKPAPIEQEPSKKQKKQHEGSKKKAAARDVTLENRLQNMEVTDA

[6] = molecular target: SW480 colon carcinoma cells lysate proteins (Homo sapiens, UniProt P68366); conditions: PreyGene TUBA4A; SW480 cells
Sequence of SW480 colon carcinoma cells lysate proteins (Homo sapiens, UniProt P68366) (P68366 whole entry): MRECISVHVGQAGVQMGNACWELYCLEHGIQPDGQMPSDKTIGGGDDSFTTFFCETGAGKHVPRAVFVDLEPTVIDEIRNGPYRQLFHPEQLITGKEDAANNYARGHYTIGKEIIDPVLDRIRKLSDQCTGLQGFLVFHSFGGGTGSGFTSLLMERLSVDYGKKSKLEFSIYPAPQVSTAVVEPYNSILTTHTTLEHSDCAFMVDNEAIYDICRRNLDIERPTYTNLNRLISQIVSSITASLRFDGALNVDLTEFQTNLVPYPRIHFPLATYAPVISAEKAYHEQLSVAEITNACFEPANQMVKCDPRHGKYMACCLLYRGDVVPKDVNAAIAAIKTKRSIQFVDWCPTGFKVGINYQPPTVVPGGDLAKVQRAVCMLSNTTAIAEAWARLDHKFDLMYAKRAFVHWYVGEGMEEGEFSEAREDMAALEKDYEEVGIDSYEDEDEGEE

[7] = molecular target: T3, SW480 colon carcinoma cells lysate proteins (Homo sapiens, UniProt Q16543); conditions: PreyGene CDC37
T3 sequence (Q16543 1-378): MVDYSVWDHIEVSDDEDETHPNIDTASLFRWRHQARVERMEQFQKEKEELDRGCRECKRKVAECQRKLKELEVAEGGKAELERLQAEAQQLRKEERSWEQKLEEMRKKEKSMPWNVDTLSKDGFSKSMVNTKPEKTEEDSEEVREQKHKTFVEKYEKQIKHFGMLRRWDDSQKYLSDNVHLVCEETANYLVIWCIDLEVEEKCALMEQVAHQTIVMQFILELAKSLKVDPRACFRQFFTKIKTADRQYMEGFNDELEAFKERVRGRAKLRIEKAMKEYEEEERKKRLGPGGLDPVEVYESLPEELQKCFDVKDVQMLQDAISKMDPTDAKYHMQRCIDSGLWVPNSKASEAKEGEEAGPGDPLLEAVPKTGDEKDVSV

[8] = molecular target: T4, SW480 colon carcinoma cells lysate proteins (Homo sapiens, UniProt Q9H910); conditions: PreyGene HN1L
T4 sequence (Q9H910 1-190): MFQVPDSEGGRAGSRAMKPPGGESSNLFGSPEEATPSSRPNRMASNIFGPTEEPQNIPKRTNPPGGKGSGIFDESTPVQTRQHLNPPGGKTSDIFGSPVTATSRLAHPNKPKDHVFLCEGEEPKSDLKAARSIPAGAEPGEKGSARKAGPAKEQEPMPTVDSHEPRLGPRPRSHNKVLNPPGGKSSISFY

[9] = molecular target: SW480 colon carcinoma cells lysate proteins (Homo sapiens, UniProt Q9NTK5); conditions: PreyGene OLA1; SW480 cells
Sequence of SW480 colon carcinoma cells lysate proteins (Homo sapiens, UniProt Q9NTK5) (Q9NTK5 whole entry): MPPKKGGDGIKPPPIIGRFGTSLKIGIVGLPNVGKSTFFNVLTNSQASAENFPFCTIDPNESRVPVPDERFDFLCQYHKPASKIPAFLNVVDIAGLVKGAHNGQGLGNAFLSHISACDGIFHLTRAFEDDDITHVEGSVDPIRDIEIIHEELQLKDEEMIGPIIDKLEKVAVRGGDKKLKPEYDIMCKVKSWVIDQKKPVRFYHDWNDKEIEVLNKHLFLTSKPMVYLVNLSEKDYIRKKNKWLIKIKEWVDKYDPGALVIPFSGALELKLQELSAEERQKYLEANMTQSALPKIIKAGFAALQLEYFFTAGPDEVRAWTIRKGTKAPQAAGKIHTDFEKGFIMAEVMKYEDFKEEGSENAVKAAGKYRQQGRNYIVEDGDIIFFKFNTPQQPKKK

[10] = molecular target: SW480 colon carcinoma cells lysate proteins (Homo sapiens, UniProt Q9Y266); conditions: PreyGene NUDC; SW480 cells
Sequence of SW480 colon carcinoma cells lysate proteins (Homo sapiens, UniProt Q9Y266) (Q9Y266 whole entry): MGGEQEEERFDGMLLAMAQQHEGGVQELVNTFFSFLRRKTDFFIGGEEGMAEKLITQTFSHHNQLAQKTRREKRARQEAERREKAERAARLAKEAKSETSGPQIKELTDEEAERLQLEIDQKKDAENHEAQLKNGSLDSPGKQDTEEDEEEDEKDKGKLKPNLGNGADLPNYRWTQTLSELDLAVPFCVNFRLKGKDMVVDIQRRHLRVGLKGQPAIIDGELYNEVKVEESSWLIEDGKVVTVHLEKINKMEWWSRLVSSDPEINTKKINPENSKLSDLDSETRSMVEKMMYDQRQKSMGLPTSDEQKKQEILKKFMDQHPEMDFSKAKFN

With C[C@H](Oc1cc(-c2cnn(C3CCNCC3)c2)cnc1N)c1c(Cl)ccc(F)c1Cl [(5)-crizotinib] the AvgP [1] was 0.8429, the “SC.Exp. 1-1” value [1] was 4 and the “SC.Exp. 1-2” value [1] was 3. The “SC.Exp. 2-1” value [1] was 3, the “SC.Exp. 2-2” value [1] was 3 and the “Sum (SC.Exp.)” value [1] was 13. For the same compound, the AvgP [2] was 0.4038, the “SC.Exp. 1-1” value [2] was 4 and the “SC.Exp. 1-2” value [2] was 2. The “SC.Exp. 2-1” value [2] was 0, the “SC.Exp. 2-2” value [2] was 0 and the “Sum (SC.Exp.)” value [2] was 6. For the same compound, the AvgP [3] was 0.3986, the “SC.Exp. 1-1” value [3] was 4 and the “SC.Exp. 1-2” value [3] was 5. For the same compound, the “SC.Exp. 2-1” value [3] was 0, the “SC.Exp. 2-2” value [3] was 0 and the “Sum (SC.Exp.)” value [3] was 9. The AvgP [4] was 0.1841, the “SC.Exp. 1-1” value [4] was 2 and the “SC.Exp. 1-2” value [4] was 0. The “SC.Exp. 2-1” value [4] was 0, the “SC.Exp. 2-2” value [4] was 0 and the “Sum (SC.Exp.)” value [4] was 2. The AvgP [5] was 0.4649, the “SC.Exp. 1-1” value [5] was 4 and the “SC.Exp. 1-2” value [5] was 4. For the same compound, the “SC.Exp. 2-1” value [5] was 0, the “SC.Exp. 2-2” value [5] was 0 and the “Sum (SC.Exp.)” value [5] was 8. For the same compound, the AvgP [6] was 0, the “SC.Exp. 1-1” value [6] was 22 and the “SC.Exp. 1-2” value [6] was 20. For the same compound, the “SC.Exp. 2-1” value [6] was 14, the “SC.Exp. 2-2” value [6] was 12 and the “SC.Exp. Sum” value [6] was 68. For the same compound, the AvgP [7] was 0.4343, the “SC.Exp. 1-1” value [7] was 3 and the “SC.Exp. 1-2” value [7] was 3. The “SC.Exp. 2-1” value [7] was 0, the “SC.Exp. 2-2” value [7] was 0 and the “Sum (SC.Exp.)” value [7] was 6. For the same compound, the AvgP [8] was 0.1898, the “SC.Exp. 1-1” value [8] was 0 and the “SC.Exp. 1-2” value [8] was 2. The “SC.Exp. 2-1” value [8] was 0, the “SC.Exp. 2-2” value [8] was 0 and the “Sum (SC.Exp.)” value [8] was 2. For the same compound, the AvgP [9] was 0, the “SC.Exp. 1-1” value [9] was 1 and the “SC.Exp. 1-2” value [9] was 1. The “SC.Exp. 2-1” value [9] was 0, the “SC.Exp. 2-2” value [9] was 0 and the “SC.Exp. Sum” value [9] was 2. For the same compound, the AvgP [10] was 0, the “SC.Exp. 1-1” value [10] was 0 and the “SC.Exp. 1-2” value [10] was 1. The “SC.Exp. 2-1” value [10] was 0, the “SC.Exp. 2-2” value [10] was 0 and the “SC.Exp. Sum” value [10] was 1.
